Test results: ChEMBL document CHEMBL1201862, “PubChem BioAssay data set” (2004)
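Each compound was tested at five concentrations against cells in 96-well plates for 48 hours. Abbreviation: GI50, concentration required for 50% inhibition of growth.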 The source made the active and inactive calls. No stated cut-off is given here; in the data, active = GI50 up to about 1.1 µM and inactive = higher.

Key:
Test in all cases: inhibition of tumour cell growth, NCI panel, 48 h
786-0 = test system: 786-0
A498 = test system: A498
A549 = test system: A549
ACHN = test system: ACHN
BT-549 = test system: BT-549
CAKI-1 = test system: CAKI-1
CCRF-CEM = test system: CCRF-CEM
COLO 205 = test system: COLO 205
EKVX = test system: EKVX
HCC 2998 = test system: HCC 2998
HCT-116 = test system: HCT-116
HCT-15 = test system: HCT-15
HOP-62 = test system: HOP-62
HOP-92 = test system: HOP-92
HT-29 = test system: HT-29
IGROV-1 = test system: IGROV-1
K562 = test system: K562
KM12 = test system: KM12
LOX IMVI = test system: LOX IMVI
M14 = test system: M14
MCF7 = test system: MCF7
MDA-MB-231 = test system: MDA-MB-231
MDA-MB-435 = test system: MDA-MB-435
MDA-N = test system: MDA-N
MOLT-4 = test system: MOLT-4
Malme-3M = test system: Malme-3M
NCI-H226 = test system: NCI-H226
NCI-H460 = test system: NCI-H460
NCI-H522 = test system: NCI-H522
NCI/ADR-RES = test system: NCI/ADR-RES
OVCAR-4 = test system: OVCAR-4
OVCAR-5 = test system: OVCAR-5
OVCAR-8 = test system: OVCAR-8
PC-3 = test system: PC-3
RPMI-8226 = test system: RPMI-8226
RXF 393 = test system: RXF 393
SF-268 = test system: SF-268
SF-295 = test system: SF-295
SF-539 = test system: SF-539
SK-MEL-28 = test system: SK-MEL-28
SK-MEL-2 = test system: SK-MEL-2
SK-MEL-5 = test system: SK-MEL-5
SK-OV-3 = test system: SK-OV-3
SN12C = test system: SN12C
SNB-19 = test system: SNB-19
SNB-75 = test system: SNB-75
SW-620 = test system: SW-620
TK-10 = test system: TK-10
U-251 = test system: U-251
UACC-257 = test system: UACC-257
UACC-62 = test system: UACC-62
DU-145 = test system: DU-145
NCI-H23 = test system: NCI-H23
OVCAR-3 = test system: OVCAR-3
UO-31 = test system: UO-31
HL-60 = test system: HL-60
Hs-578T = test system: Hs-578T
SR = test system: SR

Measured: GI50

Cc1ccc(-c2c(C#N)c(-c3ccccc3)n(NS(=O)(=O)c3ccccc3)c(=O)c2C#N)cc1
60 µM: HCT-15
inactive: 786-0 > 100 µM | A498 > 100 µM | A549 > 100 µM | ACHN > 100 µM | BT-549 64 µM | CAKI-1 > 100 µM | CCRF-CEM 32.1 µM | COLO 205 > 100 µM | EKVX > 100 µM | HCC 2998 47.3 µM | HCT-116 74.5 µM | HOP-62 64.7 µM | HOP-92 61.5 µM | HT-29 > 100 µM | IGROV-1 40.6 µM | K562 > 100 µM | KM12 89.3 µM | LOX IMVI 51.1 µM | M14 93.3 µM | MCF7 76.2 µM | MDA-MB-231 > 100 µM | MDA-MB-435 99.8 µM | MDA-N 92.7 µM | MOLT-4 20.7 µM | Malme-3M 61.5 µM | NCI-H226 > 100 µM | NCI-H460 61.7 µM | NCI-H522 88.1 µM | NCI/ADR-RES 63.5 µM | OVCAR-4 > 100 µM | OVCAR-5 > 100 µM | OVCAR-8 > 100 µM | PC-3 48.1 µM | RPMI-8226 19.6 µM | RXF 393 63.4 µM | SF-268 63.1 µM | SF-295 60.7 µM | SF-539 87.1 µM | SK-MEL-28 > 100 µM | SK-MEL-2 > 100 µM | SK-MEL-5 34.6 µM | SK-OV-3 > 100 µM | SN12C > 100 µM | SNB-19 76 µM | SNB-75 67.6 µM | SW-620 86.3 µM | TK-10 > 100 µM | U-251 81.7 µM | UACC-257 > 100 µM | UACC-62 95.5 µM

Cc1cc(C)nc(NCCC(O)(P(=O)(O)O)P(=O)(O)O)n1
> 100 µM: HCT-15
inactive: 786-0 > 100 µM | A549 > 100 µM | ACHN > 100 µM | BT-549 > 100 µM | CAKI-1 > 100 µM | COLO 205 > 100 µM | DU-145 > 100 µM | EKVX > 100 µM | HCC 2998 > 100 µM | HCT-116 > 100 µM | HOP-62 > 100 µM | IGROV-1 > 100 µM | KM12 > 100 µM | LOX IMVI > 100 µM | M14 > 100 µM | MCF7 92.5 µM | MDA-MB-231 > 100 µM | MDA-N > 100 µM | Malme-3M > 100 µM | NCI-H226 > 100 µM | NCI-H23 > 100 µM | NCI-H460 > 100 µM | NCI-H522 > 100 µM | NCI/ADR-RES > 100 µM | OVCAR-3 39.2 µM | OVCAR-5 > 100 µM | PC-3 > 100 µM | RXF 393 > 100 µM | SF-268 > 100 µM | SF-295 > 100 µM | SF-539 > 100 µM | SK-MEL-5 > 100 µM | SK-OV-3 > 100 µM | SNB-19 > 100 µM | TK-10 > 100 µM | UACC-257 > 100 µM | UACC-62 > 100 µM | UO-31 > 100 µM

CC(C)(C)n1c(=O)[nH]c(=O)n1C(C)(C)C
inactive: 786-0 > 100 µM | A498 > 100 µM | A549 > 100 µM | ACHN > 100 µM | BT-549 > 100 µM | CAKI-1 > 100 µM | CCRF-CEM > 100 µM | COLO 205 > 100 µM | EKVX > 100 µM | HCC 2998 > 100 µM | HCT-116 > 100 µM | HL-60 > 100 µM | HOP-62 > 100 µM | HOP-92 > 100 µM | HT-29 > 100 µM | Hs-578T > 100 µM | IGROV-1 > 100 µM | K562 > 100 µM | KM12 > 100 µM | LOX IMVI > 100 µM | M14 > 100 µM | MCF7 > 100 µM | MDA-MB-231 > 100 µM | MDA-N > 100 µM | MOLT-4 > 100 µM | Malme-3M > 100 µM | NCI-H226 > 100 µM | NCI-H23 > 100 µM | NCI-H460 > 100 µM | NCI/ADR-RES > 100 µM | OVCAR-3 > 100 µM | OVCAR-4 > 100 µM | OVCAR-5 > 100 µM | OVCAR-8 > 100 µM | PC-3 > 100 µM | RXF 393 > 100 µM | SF-295 > 100 µM | SF-539 > 100 µM | SK-MEL-28 > 100 µM | SK-MEL-2 > 100 µM | SK-MEL-5 > 100 µM | SK-OV-3 > 100 µM | SN12C > 100 µM | SNB-19 > 100 µM | SNB-75 > 100 µM | SR > 100 µM | SW-620 > 100 µM | TK-10 > 100 µM | U-251 > 100 µM | UACC-257 > 100 µM | UACC-62 > 100 µM | UO-31 > 100 µM
> 100 µM: HCT-15

S=C1SC(c2ccc(Cl)cc2)(c2ccc(Cl)cc2)c2ccccc21
inactive: 786-0 > 100 µM | A498 81.8 µM | A549 77.6 µM | ACHN > 100 µM | BT-549 79.1 µM | CAKI-1 53.8 µM | CCRF-CEM 43.7 µM | COLO 205 80.5 µM | DU-145 55.1 µM | EKVX 91.4 µM | HCC 2998 59.8 µM | HCT-116 24.7 µM | HOP-62 > 100 µM | HOP-92 44.4 µM | HT-29 28 µM | Hs-578T > 100 µM | IGROV-1 > 100 µM | K562 64.9 µM | KM12 40.3 µM | LOX IMVI 25.7 µM | M14 79.4 µM | MCF7 38.5 µM | MDA-MB-231 > 100 µM | MDA-MB-435 62.7 µM | MDA-N 62.2 µM | MOLT-4 37.2 µM | Malme-3M > 100 µM | NCI-H226 51.2 µM | NCI-H23 71 µM | NCI-H460 > 100 µM | NCI-H522 91.8 µM | NCI/ADR-RES > 100 µM | OVCAR-3 72.1 µM | OVCAR-4 > 100 µM | OVCAR-5 > 100 µM | OVCAR-8 > 100 µM | PC-3 58.6 µM | RXF 393 56.9 µM | SF-268 95.1 µM | SF-295 53.7 µM | SF-539 > 100 µM | SK-MEL-28 67.8 µM | SK-MEL-5 64 µM | SK-OV-3 > 100 µM | SN12C > 100 µM | SNB-19 > 100 µM | SNB-75 > 100 µM | SR 20.4 µM | SW-620 68.7 µM | TK-10 > 100 µM | U-251 > 100 µM | UACC-257 31 µM | UACC-62 > 100 µM | UO-31 > 100 µM
65 µM: HCT-15
